Reference: patent US7910573B2, “Crystalline forms of 11β-(4-acetylphenyl)-20,20,21,21,21-pentafluoro-17-hydroxy-19-nor-17α-pregna-4,9-dien-3-one” (Bayer Schering Pharma AG, priority 2006, dated 2011)

Legend:
Format in all cases: physicochemical
[1] = Solubility in a water/ethanol mixture; conditions: proportion of water 20 wt %
Text: This dependency is depicted in FIG. 7. […] The required proportion of water is distinctly higher for other systems, so that the displacement can be carried out only at high dilution and thus with an inadequate space yield.

[2] = Stability on storage under light (20 kLux); conditions: for decrease in the active ingredient content: initial values 98.4% and 95.4%
Text: The greater stability of polymorph I is even clearer on storage under light. […] The initial values were 98.4% and 95.4% here too.
(§1) On use of 11β-(4-acetylphenyl)-20,20,21,21,21-pentafluoro-17-hydroxy-19-nor-17α-pregna-4,9-dien-3-one as active ingredient in pharmaceutical preparations, the profile of impurities is of crucial importance. A compound which occurs on storage of this active ingredient is 11β-(4-acetylphenyl)-20,20,21,21,21-pentafluoro-17-hydroxy-9,10-epoxy-19-nor-10α,17α-pregna-1,4-dien-3-one. The toxicity of this compound is known. The content of this impurity must be below 0.2% until the shelf life of the pharmaceutical formulation expires. […] The amorphous solid is therefore unsuitable without stabilization for use in a medicinal product. With polymorph I, however, the increase in this critical impurity is virtually zero. Elaborate stabilization on use of polymorph I is therefore no longer necessary. The formation of the abovementioned epoxy impurity on storage of amorphous 11β-(4-acetylphenyl)-20,20,21,21,21-pentafluoro-17-hydroxy-19-nor-17α-pregna-4,9-dien-3-one at a temperature of 70° C. is 0.6% after only 15 days and as much as 1.1% after 30 days. On the other hand, on storage of polymorph I at the same temperature for 30 days, just 0.1% of the epoxy impurity is detectable.

[3] = Solid form conversion of the amorphous active ingredient under stress conditions; conditions: 15 d, 90° C./75% relative humidity
Text: It can be assumed that such a recrystallization also occurs on storage of the amorphous phase over a lengthy period at relatively low temperatures. Such a conversion is, however, undesired in the finished medicinal form because it may lead to an altered, non-reproducible release of the active ingredient, but may also influence the hardness of the medicinal form.

[4] = Short-term stability on storage at elevated temperature and elevated humidity; conditions: 70° C.
Text: This is shown on comparison of the results of the temperature tests, moisture tests and in particular in light exposure tests.
as §1

[5] = as above
[6] = 50° C., 75% rel. humidity, 15 days
[7] = 50° C., 75% rel. humidity, 30 days
[8] = 50° C., no rel. humidity given, 15 days, initial content 98.4% or 95.4%
[9] = 50° C., no rel. humidity given, 30 days, initial content 98.4% or 95.4%
[10] = 70° C., 75% rel. humidity, 15 days
[11] = 70° C., 75% rel. humidity, 30 days
[12] = 70° C., no rel. humidity given, 15 days
[13] = 70° C., no rel. humidity given, 30 days
[14] = 90° C., 75% rel. humidity, 15 days
[15] = 90° C., no rel. humidity given, 15 days

Row | solubility relative to the solubility in pure ethanol [1] | increase in the epoxy impurity ([2]; 20 kLux, 42 h) [%] | increase in the epoxy impurity ([2]; 20 kLux, 66 h) [%] | decrease in the active ingredient content ([2]; storage under 20 kLux for 42 h) [%] | decrease in the active ingredient content ([2]; storage under 20 kLux for 66 h) [%] | formation of the epoxy impurity on storage ([4]; 15 days) [%] | formation of the epoxy impurity on storage ([4]; 30 days) [%] | decrease in the active ingredient content [5, 6] [%] | decrease in the active ingredient content [5, 7] [%] | decrease in the active ingredient content [5, 8] [%] | decrease in the active ingredient content [5, 9] [%] | decrease in the active ingredient content [5, 10] [%] | decrease in the active ingredient content [5, 11] [%] | decrease in the active ingredient content [5, 12] [%] | decrease in the active ingredient content [5, 13] [%] | decrease in the active ingredient content [5, 14] [%] | decrease in the active ingredient content [5, 15] [%] | increase in the epoxy impurity ([2]; storage under stress conditions and under light) | SMILES | change of solid form on storage [3]
1 | one-hundredth |  |  |  |  |  |  |  |  |  |  |  |  |  |  |  |  |  | CC(=O)c1ccc([C@H]2C[C@@]3(C)[C@@H](CC[C@@]3(O)C(F)(F)C(F)(F)F)[C@@H]3CCC4=CC(=O)CCC4=C32)cc1 [11β-(4-Acetylphenyl)-20,20,21,21,21-pentafluoro-17-hydroxy-19-nor-17α-pregna-4,9-dien-3-one] | 
2 |  | 8.4 | 11.2 | −34 | −42 | 0.6 | 1.1 | −2.8 | −3.3 | −2.9 | −5.1 | −13.5 | −17.4 | −10.2 | −17.3 | −31.7 | −32.6 |  | CC(=O)c1ccc([C@H]2C[C@@]3(C)[C@@H](CC[C@@]3(O)C(F)(F)C(F)(F)F)[C@@H]3CCC4=CC(=O)CCC4=C32)cc1 [amorphous, 11β-(4-acetylphenyl)-20,20,21,21,21-pentafluoro-17-hydroxy-19-nor-17α-pregna-4,9-dien-3-one] | Partial recrystallization to give polymorph I
3 |  | 0.1 | 0.1 | −0.2 | −0.4 |  | 0.1 | 0 | −0.1 | 0 | −0.3 | −0.1 | −0.2 | −1.5 | −3.5 | −0.2 | −3.6 | below 0.2% | CC(=O)c1ccc([C@H]2C[C@@]3(C)[C@@H](CC[C@@]3(O)C(F)(F)C(F)(F)F)[C@@H]3CCC4=CC(=O)CCC4=C32)cc1 [polymorph I, 11β-(4-acetylphenyl)-20,20,21,21,21-pentafluoro-17-hydroxy-19-nor-17α-pregna-4,9-dien-3-one] | 
